# Source: patent publication US12234238B2, “Antimicrobial compounds and methods of making and using the same” (BIOVERSYS AG, priority 2017, dated 2025)
# What was measured:
# [1] = system: Staphylococcus aureus (S. aureus) 11540 strain; experiment: standard microdilution assay to determine minimum inhibitory concentrations (MICs), S. aureus; type: cell-based
# Procedure: (§1) The in vitro activity of the compounds of the present disclosure can be determined. Antimicrobial testing is typically performed to determine the minimum inhibitory concentration (MIC). Minimum inhibitory concentrations (MICs) are determined by the microdilution method in a final volume of 100 μl according to protocols outlined by The Clinical and Laboratory Standards Institute (CLSI). Performance standards for reference strains are assessed within the same experimental design to maintain quality control. See, for example, Clinical Laboratory Standards Institute: Methods for dilution antimicrobial susceptibility tests for bacteria that grow aerobically M7-A8. Approved Standard-Eighth Edition. Wayne, PA: CLSI; December 2008: and Clinical Laboratory Standards Institute: Performance Standards for Antimicrobial Susceptibility Testing M100-S20; Approved Standard-Twentieth Edition. Wayne, PA: CLSI; June 2010. The compounds of the present disclosure were tested for antimicrobial activity. The Compounds 1-122 were run against Eschericia coli (E. coli) strain ATCC25922 and against Staphylococcus aureus (S. aureus) 11540 strain using a standard microdilution assay to determine minimum inhibitory concentrations (MICs). […] It will be recognized by one skilled in the art that the compounds can be assessed against other bacterial organisms and that the presentation of data for activity against Eschericia coli and Staphylococcus aureus are illustrative and in no way is intended to limit the scope of the present disclosure. The compounds of the present disclosure can be assayed against a range of other microorganisms depending upon the performance activity desired to be gathered. Furthermore, the “+” and “−” representation and the selection of a cutoff value of 16 micrograms/mL is also illustrative and in no way is intended to limit the scope of the present disclosure.
# [2] = system: Eschericia coli (E. coli) strain ATCC25922; experiment: standard microdilution assay to determine minimum inhibitory concentrations (MICs), E. coli; type: cell-based; conditions: Escherichia coli
# Procedure: as §1
MIC [1] [µg/mL],MIC [2] [µg/mL],SMILES
≤ 16,≤ 16,N=C(N)SCC[C@@H]1CCC[C@@H](c2ccc(-n3cc4cc(-c5cc(CCC[C@@H](N)C6CC6)cc(Cl)c5F)[nH]c4nc3=O)cc2)N1 [Compound 1]
≤ 16,≤ 16,N[C@H](CCCc1cc(Cl)c(F)c(-c2cc3cn(-c4ccc([C@@H]5CCC[C@@H](CCSC6=NCCN6)N5)cc4)c(=O)nc3[nH]2)c1)C1CC1 [Compound 3]
≤ 16,≤ 16,N=C(N)SCC[C@@H]1CCC[C@@H](c2ccc(-n3cc4cc(-c5cc(CCC[C@@H](N)C6CC6)cc(Cl)c5F)[nH]c4nc3=O)cc2)N1CCCO [Compound 7]
≤ 16,≤ 16,N=C(N)SCC[C@@H]1CCC[C@@H](c2ccc(-n3cc4cc(-c5cc(CCC[C@@H](N)CO)cc(Cl)c5F)[nH]c4nc3=O)cc2)N1 [Compound 8]
≤ 16,≤ 16,C[C@H](N)CCCc1cc(Cl)c(F)c(-c2cc3cn(-c4ccc([C@H](C)NCCCSC(=N)N)cc4)c(=O)nc3[nH]2)c1 [Compound 9]
≤ 16,≤ 16,N=C(N)SCC[C@@H]1CCC[C@@H](c2ccc(-n3cc4cc(-c5cc(CCC[C@@H](N)COC(=O)c6ccccc6)cc(Cl)c5F)[nH]c4nc3=O)cc2)N1 [Compound 10]
≤ 16,≤ 16,C[C@H](N)CCCc1cc(Cl)c(F)c(-c2cc3cn(-c4ccc([C@@H]5CCCCN5CCCSC(=N)N)cc4)c(=O)nc3[nH]2)c1 [Compound 12]
≤ 16,≤ 16,N=C(N)SCCCN1CCCC[C@H]1c1ccc(-n2cc3cc(-c4cc(CCC[C@@H](N)C5CC5)cc(Cl)c4F)[nH]c3nc2=O)cc1 [Compound 13]
≤ 16,≤ 16,C[C@H](N)CCCc1cc(Cl)c(F)c(-c2cc3cn(-c4ccc([C@@H]5CC=C[C@@H](CCSC(=N)N)N5)cc4)c(=O)nc3[nH]2)c1 [Compound 16]
≤ 16,≤ 16,N=C(N)SCCCN1[C@H](CCO)CCC[C@H]1c1ccc(-n2cc3cc(-c4cc(CCC[C@@H](N)C5CC5)cc(Cl)c4F)[nH]c3nc2=O)cc1 [Compound 18]
≤ 16,≤ 16,C[C@H](N)Cc1cc(Cl)c(F)c(-c2cc3cn(-c4ccc([C@@H]5CCC[C@@H](CCSC(=N)N)N5)cc4)c(=O)nc3[nH]2)c1 [Compound 23]
≤ 16,≤ 16,C[C@@H](N)Cc1cc(Cl)c(F)c(-c2cc3cn(-c4ccc([C@@H]5CCC[C@@H](CCSC(=N)N)N5)cc4)c(=O)nc3[nH]2)c1 [Compound 24]
≤ 16,≤ 16,N=C(N)SCC[C@@H]1CCC[C@@H](c2ccc(-n3cc4cc(-c5cc(CCC[C@@H](N)C6CC6)cc(Cl)c5F)[nH]c4nc3=O)cc2F)N1 [Compound 25]
≤ 16,≤ 16,C[C@H](NCCCSC(=N)N)c1ccc(-n2cc3cc(-c4cc(CCC[C@@H](N)C5CC5)cc(Cl)c4F)[nH]c3nc2=O)cc1 [Compound 27]
≤ 16,≤ 16,C[C@H](N)CCCN1CCCCC1c1cc2cn(-c3ccc([C@@H]4CCC[C@@H](CCSC(=N)N)N4)cc3)c(=O)nc2[nH]1 (some centres unmarked) [Compound 33]
≤ 16,≤ 16,C[C@H](N)CCc1cc(Cl)c(F)c(-c2cc3cn(-c4ccc([C@@H]5CCC[C@@H](CCSC(=N)N)N5)cc4)c(=O)nc3[nH]2)c1 [Compound 37]
≤ 16,≤ 16,C[C@@H](O)CNCc1cc(Cl)c(F)c(-c2cc3cn(-c4ccc([C@@H]5CCC[C@@H](CCSC(=N)N)N5)cc4)c(=O)nc3[nH]2)c1 [Compound 38]
≤ 16,≤ 16,COc1ccc(OC[C@H](N)CCCc2cc(Cl)c(F)c(-c3cc4cn(-c5ccc([C@@H]6CCC[C@@H](CCSC(=N)N)N6)cc5)c(=O)nc4[nH]3)c2)cc1 [Compound 39]
≤ 16,≤ 16,CNC(=N)SCC[C@@H]1CCC[C@@H](c2ccc(-n3cc4cc(-c5cc(CCC[C@H](C)N)cc(Cl)c5F)[nH]c4nc3=O)cc2)N1 [Compound 41]
≤ 16,≤ 16,C[C@H](N)CCCc1cc(Cl)c(F)c(-c2cc3cn(-c4ccc([C@@H]5CCC[C@@H](CCSC(=N)N)N5C)cc4)c(=O)nc3[nH]2)c1 [Compound 42]
≤ 16,≤ 16,C/N=C(\NC)SCC[C@@H]1CCC[C@@H](c2ccc(-n3cc4cc(-c5cc(CCC[C@H](C)N)cc(Cl)c5F)[nH]c4nc3=O)cc2)N1 [Compound 43]
≤ 16,≤ 16,C[C@H](N)CCCc1cc(Cl)c(F)c(-c2cc3cn(-c4ccc([C@@H]5CCC[C@@H](CCSC(=N)N(C)C)N5)cc4)c(=O)nc3[nH]2)c1 [Compound 44]

# The remaining lines, values behind:
SMILES,MIC [1] [µg/mL],MIC [2] [µg/mL]
C[C@H](N)CCCc1cc(Cl)c(F)c(-c2cc3cn(-c4ccc([C@@H]5CCC[C@@H](CCSC6=NCCN6)N5)cc4)c(=O)nc3[nH]2)c1 [Compound 2],≤ 16,≤ 16
C[C@H](N)CCCc1cc(Cl)c(F)c(-c2cc3cn(-c4ccc([C@@H]5CCC[C@@H](CCSC(=N)N)N5CCCF)cc4)c(=O)nc3[nH]2)c1 [Compound 4],≤ 16,≤ 16
N=C(N)SCC[C@@H]1CCC[C@@H](c2ccc(-n3cc4cc(-c5cc(CCC[C@@H](N)C6CC6)cc(Cl)c5F)[nH]c4nc3=O)cc2)N1CCCF [Compound 5],≤ 16,≤ 16
C[C@H](N)CCCc1cc(Cl)c(F)c(-c2cc3cn(-c4ccc([C@@H]5CCC[C@@H](CCSC(=N)N)N5CCCO)cc4)c(=O)nc3[nH]2)c1 [Compound 6],≤ 16,≤ 16
C[C@H](NCC[C@H](C)SC(=N)N)c1ccc(-n2cc3cc(-c4cc(CCC[C@@H](N)C5CC5)cc(Cl)c4F)[nH]c3nc2=O)cc1 [Compound 11],≤ 16,≤ 16
C[C@H](N)CCCc1cc(Cl)c(F)c(-c2cc3cn(-c4ccc([C@@H]5CC=CCN5CCCSC(=N)N)cc4)c(=O)nc3[nH]2)c1 [Compound 14],≤ 16,≤ 16
N=C(N)SCCCN1CC=CC[C@H]1c1ccc(-n2cc3cc(-c4cc(CCC[C@@H](N)C5CC5)cc(Cl)c4F)[nH]c3nc2=O)cc1 [Compound 15],≤ 16,≤ 16
C[C@H](N)CCCc1cc(Cl)c(F)c(-c2cc3cn(-c4ccc([C@@H]5CCC[C@@H](CCO)N5CCCSC(=N)N)cc4)c(=O)nc3[nH]2)c1 [Compound 17],≤ 16,≤ 16
C[C@H](N)CCCc1cc(Cl)c(F)c(-c2cc3cn(-c4ccc([C@@H]5CCC[C@@H](CCSC(=N)N)N5CCCSC(=N)N)cc4)c(=O)nc3[nH]2)c1 [Compound 19],≤ 16,≤ 16
N=C(N)SCCCN1[C@H](CCSC(=N)N)CCC[C@H]1c1ccc(-n2cc3cc(-c4cc(CCC[C@@H](N)C5CC5)cc(Cl)c4F)[nH]c3nc2=O)cc1 [Compound 20],≤ 16,≤ 16
C[C@H](N)CCCc1cc(Cl)c(F)c(-c2cc3cn(-c4ccc([C@@H]5CCC[C@@H](CCSC(=N)N)N5)c(F)c4)c(=O)nc3[nH]2)c1 [Compound 21],≤ 16,≤ 16
N=C(N)SCC[C@@H]1CCC[C@@H](c2ccc(-n3cc4cc(-c5cc(CCC[C@@H](N)CO)cc(Cl)c5F)[nH]c4nc3=O)cc2F)N1 [Compound 22],≤ 16,≤ 16
C[C@H](N)CCCc1cc(Cl)c(F)c(-c2cc3cn(-c4ccc([C@H](C)NCC[C@H](C)SC(=N)N)cc4)c(=O)nc3[nH]2)c1 [Compound 26],≤ 16,≤ 16
C[C@H](O)CCCc1cc(Cl)c(F)c(-c2cc3cn(-c4ccc([C@@H]5CCC[C@@H](CCSC(=N)N)N5)cc4)c(=O)nc3[nH]2)c1 [Compound 28],≤ 16,≤ 16
C[C@@H](N)CCc1cc(Cl)c(F)c(-c2cc3cn(-c4ccc([C@@H]5CCC[C@@H](CCSC(=N)N)N5)cc4)c(=O)nc3[nH]2)c1 [Compound 29],≤ 16,≤ 16
C[C@H](O)CNCc1cc(Cl)c(F)c(-c2cc3cn(-c4ccc([C@@H]5CCC[C@@H](CCSC(=N)N)N5)cc4)c(=O)nc3[nH]2)c1 [Compound 30],≤ 16,≤ 16
C[C@H](N)CCCN1CCCC1c1cc2cn(-c3ccc([C@@H]4CCC[C@@H](CCSC(=N)N)N4)cc3)c(=O)nc2[nH]1 (some centres unmarked) [Compound 31],≤ 16,≤ 16
N=C(N)SCC[C@@H]1CCC[C@@H](c2ccc(-n3cc4cc(-c5cc(CCC[C@@H](N)COc6ccccc6)cc(Cl)c5F)[nH]c4nc3=O)cc2)N1 [Compound 35],≤ 16,≤ 16
C=C[C@H](N)CCCc1cc(Cl)c(F)c(-c2cc3cn(-c4ccc([C@@H]5CCC[C@@H](CCSC(=N)N)N5)c(F)c4)c(=O)nc3[nH]2)c1 [Compound 36],≤ 16,≤ 16
Cc1ccccc1OC[C@H](N)CCCc1cc(Cl)c(F)c(-c2cc3cn(-c4ccc([C@@H]5CCC[C@@H](CCSC(=N)N)N5)cc4)c(=O)nc3[nH]2)c1 [Compound 40],≤ 16,≤ 16
C=C[C@H](N)CCCc1cc(Cl)c(F)c(-c2cc3cn(-c4ccc([C@@H]5CCC[C@@H](CCSC(=N)N)N5)cc4)c(=O)nc3[nH]2)c1 [Compound 45],≤ 16,≤ 16
